Five molecules from patent publication US8158441B2, “Method for detecting aggregate-forming circulating protein forms using an agent for aggregating said forms and an agent for capturing formed aggregates” (Biomerieux S.A., priority 2005, dated 2012) can be followed below.

Assay [1] concerns recombinant Tau protein. As to the kind of experiment: Capture/precipitation of recombinant Tau protein by agent II C6S, Western blotting of pellet and supernatant. The following applies: C6S 0.5 mM to 60 mM, 30 minutes at 37° C., centrifugation. As for the experimental part:
It is identical to that described in point 2.1 above.
The assays are carried out as indicated in point 2.2 above, apart from the fact that C6S prepared as indicated patent application WO2004/059322 is used, with a concentration range of from 0.5 mM to 60 mM.

The target of assay [2] is T1, recombinant alpha-synuclein (SYN) protein (Homo sapiens, UniProt P37840).
T1 construct: purchased rPeptide
The experiment in a line: Precipitation of recombinant alpha-synuclein spiked into human plasma by agent I, protein gel and Western blotting. The following applies: 50 to 500 mg/ml agent I, 60 minutes at 37° C., Western blotting. As for the experimental part: After migration, two options are used: • The protein gel is stained with Coomassie Blue by adding gelcode blue stain reagent (Pierce) overnight at ambient temperature with shaking. […] 9.2 Detection in the Presence of the Agent I
The pellets are recovered and are separated from the supernatants. All the fractions are conserved. The pellets are taken up with 250 μl of SDS buffer. After denaturation, all the fractions are analyzed by the Western blotting technique.
For orientation: In western blotting, separated proteins are transferred to a membrane and probed.

The target in assay [3] is T2, beta-amyloid peptide 1-42 (Homo sapiens, UniProt P05067).
T2 construct: synthetic beta-amyloid peptide 42 amino acids in length (beta-A peptide 1-42)
T2 sequence (P05067 672-713): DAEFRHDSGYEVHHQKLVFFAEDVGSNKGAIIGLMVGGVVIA
The experiment in a line: Circular dichroism of Aβ42 peptide with para-sulfonato-calix[4]arene. Type of assay: binding. The following applies: in the presence of para-sulfonato-calix[4]arene, peptide/calixarene 1/1 to 1/5. As for the experimental part: The analysis is carried out by circular dichroism.
(§1) The beta-amyloid peptide to be analyzed as defined above, also called Aβ42, is extemporaneously dissolved at a stock concentration of 2.2×10^−4M in a solution of trifluoroethanol (TFE) at 20% in water in order to structure the β-amyloid peptides. The para-sulfonato-calix[n]arenes, prepared as described in Da Silva, E. et al., 2003, Tetrahedron, 59(37): 7357-7364, are dissolved at 100 μM in 50 mM phosphate buffer. The samples are prepared so as to be able to obtain a final concentration of 10 μM of beta-amyloid peptide in a phosphate buffer, i.e. for a final volume of 500 μL. The peptide concentration/calixarene concentration ratios can vary from 1/0 to 1/5.
A β-amyloid control without para-sulfonato-calix[n]arene is carried out: 22.5 μL of Aβ42 stock solution at 2.2×10^−4M (5 nmol) in 20% TFE, 477.5 μL of 50 mM phosphate buffer.
The samples are analyzed by circular dichroism between 180 and 260 nm.
The control is a sample of Aβ42 peptide without calixarene (1/0). The solutions are prepared for a final volume of 500 μL. The Aβ42 peptide has a molar mass of 4514 g/mol, the para-sulfonato-calix[4]arene has a molar mass of 744 g/mol.
A general note: Circular dichroism is the unequal absorption of left and right circularly polarised light.

Assay [4] concerns the target T2, beta-amyloid peptide 1-42. The experiment in a line: Circular dichroism of Aβ42 peptide with chondroitin-6-sulfate. It counts as binding. As for the experimental part:
as §1, with “2.2×10^-4M” for “2.2×10^−4M”, “para-sulfonato-[…],” for “para-sulfonato-calix[n]arenes,”, “1/5. The samples are analyzed by circular dichroism between 180 and 260 nm. The protocol described in Example 5 above was repeated, with the exception that chondroitin-6-sulfate (Sigma) was used as agent II.” for “1/5.”

In assay [5] the target is T3, phosphorylated Tau protein (Homo sapiens, UniProt P10636).
T3 construct: The assays are carried out with 25 ng of brain extracts; from tissue; host or cells: brain extracts from Alzheimer (AD+) and non-Alzheimer (AD-) patients, diluted in a pool of normal plasmas
T3 sequence (P10636 1-441 isoform P10636-8): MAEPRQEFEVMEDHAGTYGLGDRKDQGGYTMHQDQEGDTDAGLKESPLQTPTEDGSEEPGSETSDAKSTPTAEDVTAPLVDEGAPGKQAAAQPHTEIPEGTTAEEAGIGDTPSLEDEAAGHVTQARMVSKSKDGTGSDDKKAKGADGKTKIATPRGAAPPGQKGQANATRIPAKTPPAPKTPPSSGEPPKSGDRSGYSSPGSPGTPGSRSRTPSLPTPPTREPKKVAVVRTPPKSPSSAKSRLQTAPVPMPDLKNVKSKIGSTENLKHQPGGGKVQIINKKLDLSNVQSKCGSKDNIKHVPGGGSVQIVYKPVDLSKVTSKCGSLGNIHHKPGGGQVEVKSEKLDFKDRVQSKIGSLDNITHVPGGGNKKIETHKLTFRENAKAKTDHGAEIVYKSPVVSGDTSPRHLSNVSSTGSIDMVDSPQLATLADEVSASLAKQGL
The experiment in a line: Precipitation of phosphorylated Tau protein from brain extracts spiked into plasma by agent I, PhosphoTau ELISA of pellet and supernatant. The note with it: TET 100 mg/ml, 60 minutes at 37° C. On the technique in general: ELISA stands for enzyme-linked immunosorbent assay.
Description: The PhosphoTau Elisa assay is based on the use of Dynex microplates to which are bound 3 μg/ml of goat anti-mouse Fc antibodies (Pierce) in a 25 mM KHPO4 buffer (pH 7.2) containing 140 mM NaCl, 1 mM EDTA and 2 mM NaN3, for three hours at 24° C. The wells are then passivated with a TBS (25 mM Tris-HCl, pH 7.5, 140 mM NaCl)-casein (1%) buffer for 1 h at 24° C., and then incubated for 2 h at 24° C. with 3 μg/ml of Tau1 (Chemicon) and CP27 (AppliedNeuroSolutions) antibodies diluted in TBS casein buffer.
Standards and brain extracts are diluted in a pool of normal plasmas for these assays and deposited at a rate of 80 μL per well in duplicate. […] 20 μl of this mixture are added to each well and incubated for 66 hours at 24° C. […] The biotinylated antibody is detected with 0.4 μg/ml of a streptavidin-peroxydase conjugate (Pierce) diluted in TBS-casein buffer and incubated for 45 minutes at 24° C. A Lumiglo reagent (Kirkegaard and Perry laboratories, US) is added to each well and the chemiluminescence is read in a luminometer (Berthold, Centro LB 960). […]
The samples are then centrifuged for 10 minutes at 13 000 rpm. […] The samples are then ready to be deposited on plates.
The samples are then centrifuged for 10 minutes at 13 000 rpm. […] The samples are then ready to be deposited onto plates.

The mark [6] stands for this setting: chondroitin-6-sulfate at a concentration equal to that of Aβ42.

With “p-sulfonato-3,7-(2-aminoethyloxy)calix-[6]-arene [C6S]”, in assay [1], the “fraction in which the Tau protein and its digested forms are found after treatment with C6S” value was “found in the pellet”.

Consider `[H]/N=C(/N)N[C@H]1[C@H](O)[C@@H](O)[C@H](O[C@@H]2O[C@@H](C)[C@](O)(C=O)[C@H]2O[C@@H]2O[C@@H](CO)[C@H](O)[C@@H](O)[C@@H]2NC)[C@@H](N/C(N)=N\[H])[C@@H]1O` [streptomycin], for which, in assay [2], the “completeness of precipitation of the Syn protein (protein found in the supernatant fraction)” value is recorded as “not complete” and the “fraction in which the Syn protein is found after treatment with agent I” value is on record as “found in the pellet”.

With `O=S(=O)(O)c1cc2c(O)c(c1)Cc1cc(S(=O)(=O)O)cc(c1O)Cc1cc(S(=O)(=O)O)cc(c1O)Cc1cc(S(=O)(=O)O)cc(c1O)C2` [para-sulfonato-calix[4]arene], in assay [3], the “aperiodic structure (200 nm) of Aβ42 as share of visible structures” value is recorded as 38%, the “α-helix structure (210 nm) of Aβ42 as share of visible structures” value is “more than 37%” and the “β-sheets (220 nm) of Aβ42 as share of visible structures” value is reported as “more than 26%”.

For chondroitin-6-sulfate, in assay [4] (setting [6]), the “aperiodic structure (at 200 nm) of Aβ42” value is on record as “greater than 26%”, the “α-helix (at 210 nm) of Aβ42” value is “more than 37%” and the “β-sheet of Aβ42 at 220 nm” value was “appears”. The “secondary conformation adopted by Aβ42” value in assay [4] (chondroitin-6-sulfate five times greater than the Aβ42 peptide) is “essentially aperiodic structure”.

In the case of `NCCNCCNCCN` [TET, triethylenetetramine], in assay [5], the “fraction in which the phosphorylated Tau protein is found after treatment with agent I” value is listed as “found in the pellet”. Besides, in assay [2], the “completeness of precipitation of the Syn protein (protein found in the supernatant fraction)” value is recorded as “not complete” and the “fraction in which the Syn protein is found after treatment with agent I” value was “found in the pellet”.
